Numbers after ± are expanded uncertainties.
Assay: xn = mol fraction of the nth substance listed
Conditions: 101 kPa, Liquid

CCCCCCCCCO [nonan-1-ol] + CCCCCCCCCCO
Conditions	mass density [kg/m3]	viscosity [mPa·s]
283.15 K, x1 = 0.1009	836.5 ± 0.6	21.5 ± 0.56
283.15 K, x1 = 0.2	836.4 ± 0.6	21.12 ± 0.55
283.15 K, x1 = 0.3	836.2 ± 0.7	20.65 ± 0.54
283.15 K, x1 = 0.4002	836 ± 0.7	20.15 ± 0.53
283.15 K, x1 = 0.5001	835.9 ± 0.7	19.71 ± 0.53
283.15 K, x1 = 0.6003	835.7 ± 0.8	19.17 ± 0.52
283.15 K, x1 = 0.6996	835.6 ± 0.8	18.59 ± 0.5
283.15 K, x1 = 0.7999	835.4 ± 0.9	18.14 ± 0.5
283.15 K, x1 = 0.9047	835.2 ± 0.9	17.78 ± 0.49
283.15 K, x1 = 1	835 ± 0.9	17.44 ± 0.48
288.15 K, x1 = 0.1009	833.2 ± 0.6	17.44 ± 0.46
288.15 K, x1 = 0.2	833 ± 0.6	17.06 ± 0.46
288.15 K, x1 = 0.3	832.8 ± 0.7	16.69 ± 0.45
288.15 K, x1 = 0.3999	832.7 ± 0.7	16.2 ± 0.44
288.15 K, x1 = 0.5001	832.5 ± 0.7	15.82 ± 0.43
288.15 K, x1 = 0.6003	832.3 ± 0.8	15.44 ± 0.42
288.15 K, x1 = 0.6996	832.2 ± 0.8	15.2 ± 0.42
288.15 K, x1 = 0.7999	832 ± 0.9	14.85 ± 0.41
288.15 K, x1 = 0.9047	831.8 ± 0.9	14.48 ± 0.41
288.15 K, x1 = 1	831.5 ± 0.9	14.27 ± 0.4
293.15 K, x1 = 0.1009	829.8 ± 0.6	14.1 ± 0.38
293.15 K, x1 = 0.2	829.6 ± 0.6	13.73 ± 0.38
293.15 K, x1 = 0.3	829.5 ± 0.7	13.5 ± 0.37
293.15 K, x1 = 0.3999	829.3 ± 0.7	13.22 ± 0.37
293.15 K, x1 = 0.5	829.1 ± 0.7	13 ± 0.36
293.15 K, x1 = 0.6003	829 ± 0.8	12.48 ± 0.35
293.15 K, x1 = 0.6996	828.8 ± 0.8	12.36 ± 0.35
293.15 K, x1 = 0.7999	828.6 ± 0.9	12.09 ± 0.34
293.15 K, x1 = 0.9047	828.4 ± 0.9	11.83 ± 0.34
293.15 K, x1 = 1	828.1 ± 0.9	11.63 ± 0.34
298.15 K, x1 = 0.1009	826.4 ± 0.6	11.52 ± 0.32
298.15 K, x1 = 0.2	826.2 ± 0.6	11.36 ± 0.32
298.15 K, x1 = 0.3	826.1 ± 0.7	11.13 ± 0.31
298.15 K, x1 = 0.4002	825.9 ± 0.7	10.87 ± 0.31
298.15 K, x1 = 0.5	825.7 ± 0.7	10.62 ± 0.3
298.15 K, x1 = 0.6003	825.5 ± 0.8	10.38 ± 0.3
298.15 K, x1 = 0.6996	825.4 ± 0.8	10.17 ± 0.3
298.15 K, x1 = 0.7999	825.1 ± 0.9	9.933 ± 0.29
298.15 K, x1 = 0.9047	824.9 ± 0.9	9.725 ± 0.29
298.15 K, x1 = 1	824.7 ± 0.9	9.519 ± 0.28
303.15 K, x1 = 0.1009	822.9 ± 0.6	9.398 ± 0.27
303.15 K, x1 = 0.2	822.8 ± 0.6	9.242 ± 0.27
303.15 K, x1 = 0.3	822.6 ± 0.7	9.083 ± 0.26
303.15 K, x1 = 0.4002	822.4 ± 0.7	8.886 ± 0.26
303.15 K, x1 = 0.5001	822.2 ± 0.7	8.703 ± 0.26
303.15 K, x1 = 0.6003	822 ± 0.8	8.504 ± 0.25
303.15 K, x1 = 0.6996	821.9 ± 0.8	8.332 ± 0.25
303.15 K, x1 = 0.7999	821.7 ± 0.9	8.16 ± 0.25
303.15 K, x1 = 0.9047	821.5 ± 0.9	7.929 ± 0.24
303.15 K, x1 = 1	821.3 ± 0.9	7.806 ± 0.24
308.15 K, x1 = 0.1009	819.5 ± 0.6	7.867 ± 0.23
308.15 K, x1 = 0.2	819.4 ± 0.6	7.739 ± 0.23
308.15 K, x1 = 0.3	819.1 ± 0.7	7.613 ± 0.23
308.15 K, x1 = 0.4002	819 ± 0.7	7.453 ± 0.23
308.15 K, x1 = 0.5	818.8 ± 0.7	7.307 ± 0.22
308.15 K, x1 = 0.6003	818.6 ± 0.8	7.151 ± 0.22
308.15 K, x1 = 0.6996	818.5 ± 0.8	7.014 ± 0.22
308.15 K, x1 = 0.7999	818.3 ± 0.9	6.857 ± 0.21
308.15 K, x1 = 0.9047	818 ± 0.9	6.693 ± 0.21
308.15 K, x1 = 1	817.8 ± 0.9	6.604 ± 0.21
313.15 K, x1 = 0.1009	816.1 ± 0.6	6.704 ± 0.21
313.15 K, x1 = 0.2	815.9 ± 0.6	6.629 ± 0.2
313.15 K, x1 = 0.3	815.7 ± 0.7	6.517 ± 0.2
313.15 K, x1 = 0.4002	815.6 ± 0.7	6.4 ± 0.2
313.15 K, x1 = 0.5001	815.3 ± 0.7	6.234 ± 0.2
313.15 K, x1 = 0.6003	815.2 ± 0.8	6.15 ± 0.2
313.15 K, x1 = 0.6996	815 ± 0.8	6.026 ± 0.19
313.15 K, x1 = 0.7999	814.8 ± 0.9	5.87 ± 0.19
313.15 K, x1 = 0.9047	814.5 ± 0.9	5.779 ± 0.19
313.15 K, x1 = 1	814.3 ± 0.9	5.668 ± 0.19
